Measured values published in PMC6395927, “Rufomycin Targets ClpC1 Proteolysis in Mycobacterium tuberculosis and M. abscessus” (Antimicrobial Agents and Chemotherapy, 2019).
Values after ≈ are worked out from the molar mass of the structure shown. Like-named read-outs stand apart in the source and are kept apart here. Numbered stars: 1 amine (or outer) side, 2 acyl side, 3 side chain; on linkers, the order of the positions; unused ones are H or OH. Square brackets hold non-standard residues; d marks the D form. Peptide text beside a SMILES is read from it. ξ: configuration not given here. Trp(1-(1,1-Me2-allyl)) = C=CC(C)(C)n1cc(C[C@H](N)C(=O)O)c2ccccc21; X4 = CC(C)(C1CO1)n1cc(C[C@H](N[*:1])C(=O)[*:2])c2ccccc21; Tyr(3-NO2) = N[C@@H](Cc1ccc(O)c([N+](=O)[O-])c1)C(=O)O; X3 = CC(CC(C(=O)[*:2])N(C)[*:1])C(=O)O; Gly(E-crotyl) = C/C=C/C[C@H](N)C(=O)O; NMeL = CN[C@@H](CC(C)C)C(=O)O; ξNMeL = CNC(CC(C)C)C(=O)O

What was measured:
[1] = system: Staphylococcus aureus (ATCC 29213); experiment: MIC against nonmycobacteria (OD570); type: cell-based; settings: ATCC29213, S. aureus
From the text: (§1) Standard compounds used were ampicillin (AMP) and gentamicin (GEN). […] Amphotericin B (AmphB) and ketoconazole (KETO) were used as standard compounds.

[2] = system: Escherichia coli (ATCC 25922); experiment: MIC against nonmycobacteria (OD570); type: cell-based; settings: ATCC25922, E. coli
From the text: as §1

[3] = system: M. tuberculosis strain H37Rv (ATCC 27294); experiment: microbe, parasite or virus in culture; type: cell-based, Mycobacterium tuberculosis; settings: Mycobacterium tuberculosis
[4] = system: OVCAR 3 ovarian cancer cells; experiment: Cytotoxicity against cancer cell lines (CellTiter 96); type: cell-based; settings: Homo sapiens; OVCAR 3, paclitaxel column
Method: (§2) Human melanoma cancer cells (MDA-MB-435), human breast cancer cells (MDA-MB-231), and human ovarian cancer cells (OVCAR3) were purchased from the American Type Culture Collection (Manassas, VA). Each cell line was propagated at 37°C in 5% CO2 in RPMI 1640 medium supplemented with FBS (10%), penicillin (100 U/ml), and streptomycin (100 μg/ml). Cells in log phase were harvested by trypsinization, followed by two washing cycles to remove all traces of enzyme. A total of 5,000 cells were seeded per well of a 96-well clear, flat-bottom plate (Microtest 96; Falcon) and incubated overnight (37°C in 5% CO2). Samples dissolved in DMSO were then diluted and added to the respective wells. The cells were incubated in the presence of test substance for 72 h at 37°C and evaluated for viability with a commercial absorbance assay (CellTiter 96 AQueous One Solution cell proliferation assay; Promega Corp., Madison, WI) that measured viable cells. IC50 values are expressed in micromolar values relative to the solvent (DMSO) control.

[5] = system: MDA-MB-231 breast cancer cells; experiment: as above; type: cell-based; settings: Homo sapiens; MDA-MB-231, paclitaxel column
Method: as §2

[6] = system: MDA-MB-435 melanoma cells; experiment: as above; type: cell-based; settings: Homo sapiens; MDA-MB-435, paclitaxel column
Method: as §2

[7] = system: M. tuberculosis 5 global clade representatives; experiment: microbe, parasite or virus in culture; type: cell-based; settings: Mycobacterium tuberculosis, read-out: MICs
M. chelonae (ATCC 35752) = experiment: microbe, parasite or virus in culture; type: cell-based, Mycobacterium chelonae; settings: Mycobacteroides chelonae, ATCC35752; M. chelonae; read-out: MIC
M. avium (ATCC 15769) = experiment: microbe, parasite or virus in culture; type: cell-based; settings: Mycobacterium avium, ATCC15769; M. avium; read-out: MIC
M. marinum (ATCC 927) = experiment: microbe, parasite or virus in culture; type: cell-based; settings: Mycobacterium marinum, ATCC927; M. marinum; read-out: MIC
[8] = system: M. abscessus (ATCC 19977); experiment: microbe, parasite or virus in culture; type: cell-based, Mycobacterium abscessus; settings: Mycobacteroides abscessus, ATCC19977, M. abscessus; read-out: MIC
M. kansasii (ATCC 12478) = experiment: microbe, parasite or virus in culture; type: cell-based; settings: Mycobacterium kansasii, ATCC12478; M. kansasii; read-out: MIC
M. bovis (ATCC 35734) = experiment: microbe, parasite or virus in culture; type: cell-based; settings: Mycobacterium tuberculosis variant bovis, ATCC35734
[9] = system: M. smegmatis (ATCC 700084); experiment: microbe, parasite or virus in culture; type: cell-based; settings: Mycolicibacterium smegmatis, ATCC700084; M. smegmatis; read-out: MIC
[10] = system: Candida albicans (ATCC 10231); experiment: MIC against nonmycobacteria (OD570); type: cell-based; settings: ATCC10231, C. albicans
From the text: as §1

[11] = read-out: MIC against M. tuberculosis

`CC1(C)S[C@@H]2[C@H](NC(=O)[C@H](N)c3ccccc3)C(=O)N2[C@H]1C(=O)O` [AMP, ampicillin] showed an MIC [1] of 6.1 µM (≈ 2.13 µg/mL) and an MIC [2] of 16 µM (≈ 5.59 µg/mL).

With `C/C=C/C[C@@H]1NC(=O)[C@H](CC(C)C)N2C(=O)C(C[C@@H](C)[C@H]2O)N(C)C(=O)[C@H](C)NC(=O)[C@H](Cc2ccc(O)c([N+](=O)[O-])c2)NC(=O)[C@H](CC(C)C)N(C)C(=O)[C@H](Cc2cn(C(C)(C)C3CO3)c3ccccc23)NC1=O` (stereo partly shown) [II] the MIC [3, 11] was 0.05 µM (≈ 0.0521 µg/mL).

`CC(=O)O[C@H]1C(=O)[C@@]2(C)[C@H]([C@H](OC(=O)c3ccccc3)[C@]3(O)C[C@H](OC(=O)[C@H](O)[C@@H](NC(=O)c4ccccc4)c4ccccc4)C(C)=C1C3(C)C)[C@]1(OC(C)=O)CO[C@@H]1C[C@@H]2O` [paclitaxel] was tested, and the IC50 [4] was 1.5 nM, the IC50 [5] was 170 nM and the IC50 [6] was 0.1 nM.

For `COc1c(N2C[C@@H]3CCCN[C@@H]3C2)c(F)cc2c(=O)c(C(=O)O)cn(C3CC3)c12` [MXF, moxifloxacin], the MIC [3] was 0.26 µM (≈ 0.104 µg/mL).

`C=CC(C)(C)n1cc(C[C@@H]2NC(=O)[C@H](C/C=C/C)NC(=O)[C@H](CC(C)C)N3CC(C)CC(C3=O)N(C)C(=O)[C@H](C)NC(=O)[C@H](Cc3ccc(O)c([N+](=O)[O-])c3)NC(=O)[C@H](CC(C)C)N(C)C2=O)c2ccccc21` (stereo partly shown) [III] showed an MIC [3, 11] of 1 µM (≈ 1.01 µg/mL).

With `C=CC(C)(C)n1cc(C[C@@H]2NC(=O)[C@H](C/C=C/C)NC(=O)[C@H](CC(C)C)NC(=O)C(CC(C)C)N(C)C(=O)[C@H](C)NC(=O)[C@H](Cc3ccc(O)cc3)NC(=O)[C@H](CC(C)C)N(C)C2=O)c2ccccc21` (stereo partly shown) [VI] (cyclo(A[ξNMeL]L[Gly(E-crotyl)][Trp(1-(1,1-Me2-allyl))][NMeL]Y)) the MIC [3, 11] was > 50 µM.

In the case of `NNC(=O)c1ccncc1` [INH, isoniazid], the MIC [7] is reported as 0.25 to 0.47 µM (≈ 0.0343 to 0.0645 µg/mL), the MIC (M. chelonae (ATCC 35752)) is reported as > 8 µM and the MIC (M. avium (ATCC 15769)) is reported as > 8 µM. For the same molecule, the MIC [3] was 0.23 µM (≈ 0.0315 µg/mL), the MIC (M. marinum (ATCC 927)) was > 8 µM and the MIC [8] was > 8 µM. For the same molecule, the MIC (M. kansasii (ATCC 12478)) was 3.84 µM (≈ 0.527 µg/mL), the MIC (M. bovis (ATCC 35734)) was 0.48 µM (≈ 0.0658 µg/mL) and the MIC [9] was 360 µM (≈ 49.4 µg/mL).

Work on `C[C@@H]1[C@H](O)[C@@H](C)/C=C/C=C/C=C/C=C/C=C/C=C/C=C/[C@H](O[C@@H]2O[C@H](C)[C@@H](O)[C@H](N)[C@@H]2O)C[C@@H]2O[C@](O)(C[C@@H](O)C[C@@H](O)[C@H](O)CC[C@@H](O)C[C@@H](O)CC(=O)O[C@H]1C)C[C@H](O)[C@H]2C(=O)O` [AmphB, amphotericin B] yielded an MIC [10] of 2.6 µM (≈ 2.4 µg/mL).

Work on `CNC(C)C1CCC(N)C(OC2C(N)CC(N)C(OC3OCC(C)(O)C(NC)C3O)C2O)O1` (stereo not shown) [GEN, gentamicin] yielded an MIC [1] of 0.33 µM (≈ 0.158 µg/mL) and an MIC [2] of 0.23 µM (≈ 0.11 µg/mL).

`C/C=C/C[C@@H]1NC(=O)[C@H](CC(C)C)NC(=O)C(CC(C)C(=O)O)N(C)C(=O)[C@H](C)NC(=O)[C@H](Cc2ccc(O)c([N+](=O)[O-])c2)NC(=O)[C@H](CC(C)C)N(C)C(=O)[C@H](Cc2cn(C(C)(C)C3CO3)c3ccccc23)NC1=O` (stereo partly shown) [VII] (cyclo(A[X3]L[Gly(E-crotyl)][X4][NMeL][Tyr(3-NO2)])) showed an MIC [3, 11] of 1 µM (≈ 1.06 µg/mL).
